Test results: ChEMBL document CHEMBL4480398, “1,2,4-Triazolo[1,5-a]pyrimidines in drug design” (Eur J Med Chem, 2019)
Converted amounts (≈) assume the structure as drawn. Values belong to the compound of their own block, whether it stands above or below them.

Columns and labels:
[1] = Intrinsic clearance in human liver microsomes assessed per mg protein by LC-MS analysis; type: ADME, Microsome; details: read-out: CLH
[2] = Aqueous solubility of compound; type: physicochemical; details: buffer
[3] = Intrinsic clearance in mouse liver microsomes assessed per mg protein by LC-MS analysis; type: ADME, Microsome; details: read-out: CLH
[4] = biological target: Dihydroorotate dehydrogenase (quinone), mitochondrial (Homo sapiens, UniProt Q02127); experiment: Inhibition of human DHODH expressed in Escherichia coli by DCIP staining-based spectrophotometric analysis
Dihydroorotate dehydrogenase (quinone), mitochondrial, sequence (Q02127 whole entry): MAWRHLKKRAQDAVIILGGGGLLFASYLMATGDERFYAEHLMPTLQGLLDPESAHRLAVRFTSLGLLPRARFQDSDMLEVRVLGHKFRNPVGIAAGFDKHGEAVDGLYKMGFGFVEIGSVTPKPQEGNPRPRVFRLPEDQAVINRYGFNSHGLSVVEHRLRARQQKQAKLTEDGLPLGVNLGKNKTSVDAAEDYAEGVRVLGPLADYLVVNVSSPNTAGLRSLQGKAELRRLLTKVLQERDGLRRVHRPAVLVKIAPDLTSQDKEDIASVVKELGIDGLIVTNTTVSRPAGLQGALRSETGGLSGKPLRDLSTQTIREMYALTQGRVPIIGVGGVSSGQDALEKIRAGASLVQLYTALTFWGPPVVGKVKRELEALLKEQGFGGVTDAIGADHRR

[5] = Inhibition of Plasmodium falciparum DHODH expressed in Escherichia coli by DCIP staining-based spectrophotometric analysis
[6] = tested on: Trypanosoma brucei; experiment: Antitrypanosomal activity against Trypanosoma brucei Lister 427 bloodstream form after 48 hrs by CellTiter-Glo luminescent cell viability assay; type: functional, organism-based; details: Lister 427, 48 h
[7] = Cytotoxicity against mouse primary peritoneal macrophages; type: cell-based, Peritoneal macrophage
[8] = tested on: Trypanosoma cruzi; experiment: Antitrypanosomal activity against Trypanosoma cruzi Tulahuen amastigotes expressing beta-galactosidase infected in mouse NIH3T3 cells after 6 days; type: functional, organism-based; details: NIH3T3, 144 h
[9] = tested on: Leishmania donovani; experiment: Antileishmanial activity against Leishmania donovani MHOM/SD/62/1S-CL2D axenic amastigote after 48 hrs by CellTiter-Glo luminescent cell viability assay; type: functional, organism-based
[10] = Oral bioavailability in mouse at 20 mg/kg administered as single dose; type: ADME, organism-based; details: in vivo
[11] = biological target: Fatty acid-binding protein, adipocyte (Homo sapiens, UniProt P15090); experiment: Binding affinity to recombinant FABP4 (unknown origin) expressed in Escherichia coli by sypro orange dye-based TdF assay
Fatty acid-binding protein, adipocyte, sequence (P15090 whole entry): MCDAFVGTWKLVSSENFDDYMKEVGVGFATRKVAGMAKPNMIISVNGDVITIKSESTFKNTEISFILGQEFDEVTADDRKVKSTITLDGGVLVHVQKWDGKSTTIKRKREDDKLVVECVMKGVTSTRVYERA

[12] = Protein binding in human plasma by ultracentrifugation method; type: ADME, cell-free
[13] = Lipophilicity, log D of the compound at pH 7.4 by shake flask method; type: physicochemical; details: buffer
[14] = Cytotoxicity against mouse NIH/3T3 cells after 5 days by CellTiter-Glo luminescent cell viability assay; type: cell-based, NIH3T3
[15] = Dissociation constant, pKa of compound; type: physicochemical

microsomal CLint [1]: < 5 µL/min/mg | solubility [2]: 9 to 18 µM (≈ 2.96 to 5.93 µg/mL) | microsomal CLint [3]: < 6 µL/min/mg | IC50 [4]: > 30000 nM | IC50 [5]: 190 nM
SMILES: Cc1cc(Nc2cc(F)c(C(F)(F)F)c(F)c2)n2ncnc2n1

EC50 [6]: 150000 nM | EC50 [8]: 75 nM
SMILES: O=C(Nc1ccc(Cl)c(-c2nc3ncccc3o2)c1)c1ccco1
CC50 [7]: > 50000 nM | EC50 [9]: 7300 nM

EC50 [6]: 70 nM | bioavailability [10]: < 34%
SMILES: Cc1nc(C)c(C(=O)Nc2ccc(F)c(-c3nc4ncc(-c5ccccn5)cn4n3)c2)o1

Kd [11]: 20 nM
SMILES: O=c1cc(CNc2cccc(Cl)c2C2CC2)[nH]c2nc(-c3ccccc3)nn12

EC50 [6]: 22 nM | EC50 [8]: 16 nM | bioavailability [10]: < 34%
SMILES: Cc1nc(C)c(C(=O)Nc2ccc(F)c(-c3nc4ncc(-c5ccccc5)cn4n3)c2)o1
EC50 [9]: 71 nM

solubility [2]: > 100 µM | microsomal CLint [3]: 5.1 µL/min/mg | fraction unbound ([12]; read-out: PPB): 0.5 | logD [13]: 2.5 | IC50 [4]: > 100000 nM | IC50 [5]: 14 nM
SMILES: Cc1cc(Nc2ccc(C(F)(F)F)nc2)n2nc(C(C)(F)F)nc2n1

Kd [11]: 860 nM
SMILES: COc1ccc(Cl)cc1NCc1cc(=O)n2nc(-c3ccccc3)nc2[nH]1

EC50 [6]: 79 nM | EC50 [8]: 55 nM
SMILES: CC(C)OC(=O)Nc1cnc2nc(-c3cc(NC(=O)c4ccco4)ccc3Cl)nn2c1
CC50 [7]: 14000 nM | CC50 at 120 h [14]: 9000 nM | EC50 [9]: 350 nM

Kd [11]: 10 nM | pKa [15]: 4.6
SMILES: Cc1c(Cl)cccc1NCc1cc(=O)n2nc(-c3ccccc3)nc2[nH]1

solubility [2]: 45 to 90 µM (≈ 12.4 to 24.8 µg/mL) | IC50 [4]: > 200000 nM
SMILES: Cc1cc(Nc2ccc3ccccc3c2)n2ncnc2n1

microsomal CLint [1]: < 5 µL/min/mg | solubility [2]: 70 to 140 µM (≈ 29.1 to 58.1 µg/mL) | microsomal CLint [3]: 10.1 µL/min/mg | PPB [12]: 90.4% | IC50 [5]: 33 nM
SMILES: Cc1cc(Nc2ccc(S(F)(F)(F)(F)F)cc2)n2nc(C(C)(F)F)nc2n1 [DSM-265]
